Results on 19 compounds are retold here after patent publication US4417052A, “Phenyl-lower-alkyl piperidines and pyrrolidines” (Sterling Drug Inc., priority 1981, dated 1983).

The structures appear in SMILES notation. Counter-ions that a name gives are not always drawn.

Data set [1] deals with carrageenin-induced foot edema. Put plainly: inhibition of carrageenin-induced foot edema test (C.E.). The conditions noted are these: oral; for inhibition in vivo at 4 µmol/kg: dose 0.004 millimoles/kg; for inhibition in vivo at 20 µmol/kg: dose 0.02 millimoles/kg; for C.E. percent inhibition (Table B): formula V amides; for C.E. percent inhibition (Table B, footnote a): (a) data obtained after 17 days on test and 9 medications. Format: in vivo. The protocol:
(§1) Anti-inflammatory activity was determined using (1) the inhibition of carrageenin-induced foot edema test essentially described by Winter et al., Proc. Soc. Exp. Biol. and Med. 111, 554 (1962) as modified by Van Arman et al., J. Pharmacol. Exptl. Therap. 150, 328 (1965) and (2) a modification of the inhibition of adjuvant-induced arthritis test described by Pierson, J. Chronic Diseases 16, 863 (1963) and Glenn et al., Am. J. Vet. Res. 26, 1180 (1965).
(§2) The N-{2-,3- and 4-[R1 -(phenyl)-C(=X)]-phenyl-lower-alkyl}amines of formulas I, Ia and Ib of the invention have been tested in the carrageenin edema (CE) and adjuvant arthritis (AA) tests and found to have anti-inflammatory activity. For comparative purposes, data obtained in the carrageenin edema test on the reference compound (designated "Ref."), 4[(3-benzoylphenyl)methyl]morpholine, disclosed in French Patent 1,549,342, are also given. All data were obtained on oral administration.

The subject of data set [2] is adjuvant-induced arthritis. Put plainly: inhibition of adjuvant-induced arthritis test (A.A.). To be noted: oral; for A.A. percent inhibition (Table B, footnote a): (a) data obtained after 17 days on test and 9 medications; for A.A. percent inhibition (Table B): formula V amides; for inhibition in vivo at 5 µmol/kg: dose 0.005 millimoles/kg; for inhibition in vivo at 20 µmol/kg: dose 0.02 millimoles/kg; for inhibition in vivo at 160 µmol/kg: dose 0.16 millimoles/kg. In kind it is in vivo. The protocol: as §1, §2

The mark [3] stands for this setting: read-out: C.E. percent inhibition.
Setting [4] is: dose 0.08 millimoles/kg, read-out: A.A. percent inhibition.
Setting [5] is: dose 0.08 millimoles/kg, read-out: C.E. percent inhibition.
Setting [6] is: read-out: A.A. percent inhibition.
The mark [7] stands for this setting: dose 0.324 millimoles/kg, read-out: C.E. percent inhibition.

Turning to `CC(CN1CCC2(CC1)OCCO2)c1cccc(C(=O)c2ccccc2)c1` (centres unmarked) [7G (base), 8-[2-(3-Benzoylphenyl)propyl]-1,4-dioxa-8-azaspiro[4,5]decane], in data set [1] (setting [3]), the inhibition in vivo at 4 µmol/kg amounted to 33% and the inhibition in vivo at 20 µmol/kg stood at 42%. Moreover, the inhibition in vivo at 80 µmol/kg in data set [2] (setting [4]) came to 76%.
The like results for `CC(CN1CCOCC1)c1cccc(C(=O)c2ccccc2)c1` (centres unmarked) [7H (base), 4-[2-(3-Benzoylphenyl)propyl]morpholine] were, in that order, 29%, 44% and 81%.
Take `CC(C(=O)N1CCCCC1CC1CCCCC1)c1cccc(C(=O)c2ccccc2)c1` (stereo not drawn) [Example 1 (Table B), 2-cyclohexylmethyl-1-[α-(3-benzoylphenyl)propionyl]piperidine]: in data set [1] (dose 0.08 millimoles/kg), the “C.E. percent inhibition (Table B)” value worked out at 21%. For the same compound, the “C.E. percent inhibition (Table B, footnote a)” value in data set [1] (dose 0.324 millimoles/kg) came to 36%. The “A.A. percent inhibition (Table B, footnote a)” value in data set [2] (dose 0.324 millimoles/kg) is reported as 67%.
For the compound `CC(C(=O)N1CCN(C2CCCCC2)CC1)c1cccc(C(=O)c2ccccc2)c1.Cl` (stereo not drawn) [Example 1E, 4-Cyclohexyl-1-[α-(3-benzoylphenyl)propionyl]piperazine hydrochloride], in data set [1] (C.E. test, dose 0.324 millimoles/kg), the convulsions and salivation result was “Convulsions and salivation produced in 2 of 8 test animals”. The “C.E. percent inhibition (Table B)” value stood at 10% in data set [1] (dose 0.08 millimoles/kg) and 61% in data set [1] (dose 0.324 millimoles/kg). Also, the “A.A. percent inhibition (Table B)” value in data set [2] (dose 0.08 millimoles/kg) was determined as 63%.
Regarding `CC(C(=O)N1CCN(c2ccccc2)CC1)c1cccc(C(=O)c2ccccc2)c1` (stereo not drawn) [Example 1F, 4-Phenyl-1-[α-(3-benzoylphenyl)propionyl]piperazine], the “C.E. percent inhibition (Table B)” value in data set [1] (dose 0.08 millimoles/kg) is on record as 2%; in data set [1] (dose 0.324 millimoles/kg), 18%. In addition, the “A.A. percent inhibition (Table B)” value in data set [2] (dose 0.324 millimoles/kg) amounted to 58%.
`CC(C(=O)N1CCC(CC2CCCCC2)CC1)c1cccc(C(=O)c2ccccc2)c1` (stereo not drawn) [Example 1L, 4-Cyclohexylmethyl-1-[α-(3-benzoylphenyl)propionyl]piperidine]: in data set [1] (dose 0.08 millimoles/kg), the “C.E. percent inhibition (Table B)” value is 13%. The “C.E. percent inhibition (Table B, footnote a)” value in data set [1] (dose 0.324 millimoles/kg) worked out at 31%. The “A.A. percent inhibition (Table B, footnote a)” value in data set [2] (dose 0.324 millimoles/kg) stood at 74%.
In the case of `COc1ccc(C(O)c2cccc(C(C)CN3CCCCC3CC3CCCCC3)c2)cc1` (stereo not drawn) [Example 3, 2-cyclohexylmethyl-1-{2-[3-(α-hydroxy-4-methoxybenzyl)phenyl]propyl}piperidine], the inhibition in vivo at 5 µmol/kg in data set [1] (dose 0.005 millimoles/kg, read-out: C.E. percent inhibition) was determined as 0%; in data set [2] (setting [6]), 0%. The inhibition in vivo at 20 µmol/kg in data set [1] (setting [3]) was determined as 3%; in data set [2] (setting [6]) it was 2%. For the same compound, the inhibition in vivo at 80 µmol/kg amounted to 35% in data set [1] (setting [5]) and 30% in data set [2] (setting [4]).
As to `CC(CN1CCCC1CC1CCCCC1)c1cccc(C(O)c2ccccc2)c1` (stereo not drawn) [Example 3B, 2-Cyclohexylmethyl-1-{2-[3-(α-hydroxybenzyl)phenyl]propyl}pyrrolidine], the inhibition in vivo at 80 µmol/kg in data set [1] (setting [5]) is 19%. In addition, the inhibition in vivo at 324 µmol/kg in data set [1] (setting [7]) was determined as 63%. The inhibition in vivo at 160 µmol/kg in data set [2] (setting [6]) was determined as 91%.
In the case of `COc1ccc(C(=O)c2cccc(C(C)CN3CCCCC3CC3CCCCC3)c2)cc1` (centres unmarked) [Example 7, 2-cyclohexylmethyl-1-{2-[3-(4-methoxybenzoyl)phenyl]propyl}piperidine], in data set [1] (setting [3]), the inhibition in vivo at 4 µmol/kg came out at 0% and the inhibition in vivo at 20 µmol/kg was determined as 22%. Also, the inhibition in vivo at 80 µmol/kg in data set [2] (setting [4]) was determined as 63%.
Regarding `CC(CN1CCCC1CC1CCCCC1)c1cccc(C(=O)c2ccccc2)c1` (centres unmarked) [Example 7A, 2-Cyclohexylmethyl-1-[2-(3-benzoylphenyl)propyl]pyrrolidine], in data set [1] (setting [5]), the inhibition in vivo at 80 µmol/kg stood at 45%. The inhibition in vivo at 324 µmol/kg in data set [1] (setting [7]) is 60%. In addition, the inhibition in vivo at 160 µmol/kg in data set [2] (setting [6]) amounted to 90%.
For `CC(CN1CCCCC1CC1CCCCC1)c1cccc(C(=O)c2ccc(F)cc2)c1` (centres unmarked) [Example 7B, 2-Cyclohexylmethyl-1-{2-[3-(4-fluorobenzoyl)phenyl]propyl}piperidine], in data set [1] (setting [3]), the inhibition in vivo at 4 µmol/kg stood at 3% and the inhibition in vivo at 20 µmol/kg amounted to 38%. In data set [2] (setting [6]), the inhibition in vivo at 5 µmol/kg stood at 61% and the inhibition in vivo at 20 µmol/kg worked out at 55%. Further, the inhibition in vivo at 80 µmol/kg in data set [2] (setting [4]) was determined as 85%.
Turning to `CC(CN1CCCCC1CCCC1CCCCC1)c1cccc(C(=O)c2ccccc2)c1` (centres unmarked) [Example 7D, 2-(3-Cyclohexylpropyl)-1-[2-(3-benzoylphenyl)propyl]piperidine], the inhibition in vivo at 80 µmol/kg in data set [1] (setting [5]) came to 37%. Further, in data set [1] (setting [7]), the inhibition in vivo at 324 µmol/kg is 49%. The inhibition in vivo at 160 µmol/kg in data set [2] (setting [6]) stood at 100%.
For `CC(CN1C(C)CCCC1C)c1cccc(C(=O)c2ccccc2)c1` (centres unmarked) [Example 13, 2,6-dimethyl-1-[2-(3-benzoylphenyl)propyl]piperidine], the inhibition in vivo at 4 µmol/kg in data set [1] (setting [3]) amounted to 0%; in data set [2] (dose 0.004 millimoles/kg, read-out: A.A. percent inhibition), 37%. For the same compound, the inhibition in vivo at 15 µmol/kg stood at 15% in data set [1] (dose 0.015 millimoles/kg, read-out: C.E. percent inhibition) and 52% in data set [2] (dose 0.015 millimoles/kg, read-out: A.A. percent inhibition). Besides, the inhibition in vivo at 60 µmol/kg in data set [1] (dose 0.06 millimoles/kg, read-out: C.E. percent inhibition) stood at 37%; in data set [2] (dose 0.06 millimoles/kg, read-out: A.A. percent inhibition), 78%. Moreover, the inhibition in vivo at 80 µmol/kg in data set [1] (setting [5]) worked out at 54%. In addition, the inhibition in vivo at 324 µmol/kg in data set [1] (setting [7]) is 56%.
Consider `CC(CN1CCCCC1)c1cccc(C(=O)c2ccccc2)c1` (centres unmarked) [Example 14A, 1-[2-(3-Benzoylphenyl)propyl]piperidine hydrochloride], for which the inhibition in vivo at 80 µmol/kg in data set [1] (setting [5]) came to 39%; in data set [2] (setting [4]), 49%. Also, the inhibition in vivo at 324 µmol/kg in data set [1] (setting [7]) amounted to 67%.
For `CC(CN1CCCCC1CC1CCCCC1)c1cccc(C(=NO)c2ccccc2)c1` (centres unmarked) [Example 15, 2-cyclohexylmethyl-1-[2-(3-benzoylphenyl)propyl]piperidine oxime], in data set [1] (setting [3]), the inhibition in vivo at 4 µmol/kg was found to be 16% and the inhibition in vivo at 20 µmol/kg came out at 43%. The inhibition in vivo at 20 µmol/kg in data set [2] (setting [6]) stood at 92%. In data set [2] (setting [4]), the inhibition in vivo at 80 µmol/kg was 91%.
As to `CC(CN1CCCCC1CC1CCCCC1)c1cccc(C(N)c2ccccc2)c1` (stereo not drawn) [Example 16, 2-cyclohexylmethyl-1-{2-[3-(α-aminobenzyl)phenyl]propyl}piperidine dihydrochloride], in data set [1] (setting [3]), the inhibition in vivo at 4 µmol/kg is 16% and the inhibition in vivo at 20 µmol/kg was determined as 31%. Further, in data set [2] (setting [6]), the inhibition in vivo at 5 µmol/kg is 80% and the inhibition in vivo at 20 µmol/kg was 89%. In addition, the inhibition in vivo at 80 µmol/kg in data set [2] (setting [4]) came to 108%.
With `NC(c1ccccc1)c1cccc(CN2CCOCC2)c1` (stereo not drawn) [Example 16B, 4-{[3-(α-Aminobenzyl)phenyl]methyl}morpholine dihydrochloride monohydrate], in data set [1] (setting [5]), the inhibition in vivo at 80 µmol/kg turned out to be 0%. Also, the inhibition in vivo at 324 µmol/kg was determined as 36% in data set [1] (setting [7]) and 0% in data set [2] (dose 0.324 millimoles/kg, read-out: A.A. percent inhibition).
On to `CC1CCCC(C)N1CCc1ccc(O)c(C(=O)c2ccccc2)c1` (centres unmarked) [Example 19, 2,6-dimethyl-1-[2-(3-benzoyl-4-hydroxyphenyl)ethyl]piperidine hydrochloride], for which the inhibition in vivo at 20 µmol/kg in data set [1] (setting [3]) was 5%. The inhibition in vivo at 80 µmol/kg in data set [1] (setting [5]) was found to be 0%. Besides, the inhibition in vivo at 324 µmol/kg in data set [1] (setting [7]) amounted to 23%. Also, the inhibition in vivo at 160 µmol/kg in data set [2] (setting [6]) is 1%.
As to `CC(CN1CCCCC1CC1CCCCC1)c1cccc(C(=O)c2ccc(Cl)cc2)c1` (centres unmarked) [Example 20, 2-cyclohexylmethyl-1-{2-[3-(4-chlorobenzoyl)phenyl]propyl}piperidine], in data set [1] (setting [3]), the inhibition in vivo at 4 µmol/kg was 16% and the inhibition in vivo at 20 µmol/kg came out at 52%. Moreover, in data set [2] (setting [6]), the inhibition in vivo at 5 µmol/kg came to 63% and the inhibition in vivo at 20 µmol/kg came out at 90%. In addition, the “toxicity” value in data set [2] (dose 0.08 millimoles/kg) is reported as “Toxic”.
